In patent US20210395674A1, “COMPOSITION FOR INCREASING BIOLOGICAL ACTIVITY OF STEM CELLS USING MIXTURE 4F” (YOUTH BIO GLOBAL CO., LTD., priority 2019, published 2021):

Tested on: umbilical cord blood monocytes (MNCs) / EPC colonies
Test: Colony formation, proliferative ability and cell cycle in xeno-free culture
Format: cell-based, human
Protocol: FIG. […] Specifically, the isolation and culture of […] (EPC) is performed by density difference centrifugation using ficoll after receiving umbilical cord blood (IRB approval number 05-2017-053, 50 cc or more) of mothers who visited the Department of Obstetrics and Gynecology, Pusan National University, Yangsan to obtain monocytes (MNCs). After red blood cell lysis, the cells were seeded (7>10^6 cells/well) in a 6-well plate coated with fibronectin (1 μg/cm^2), and were cultured for 5 days in an atmosphere of 5% CO2 at 37° C. under conditions of each medium ([…] endothelial cell differentiation (EGM2 media)). […] After culture, the medium was exchanged every day, and the EPC colony attachment was identified and subcultured when 70% or more thereof is under a confluent state. According to the type of culture medium, the cells obtained by culturing with the conventional vascular endothelial cell differentiation medium […]
[…] Example 11 were separated into single cells, and proliferative ability, cell cycle change, and colony formation ability were analyzed in the same manner as in Example 6. For the control group of this example, cells cultured by the conventional culture method (L-EPC) and cells cultured in a medium containing each single component in a xeno-free medium [a group treated with fucoidan (Fu, 0.1 μg/ml), a group treated with a tauroursodeoxycholic acid (TD, 25 μM), a group treated with oleuropein (OLP, 0.5 μM), and a group treated with a vascular endothelial growth factor (VEGF, 100 ng/ml)]were used.

For vascular endothelial growth factor, the “colony formation ability (EPC colonies)” value (xeno-free medium) was “EPC colonies were identified”, the “division time of the cells” value (xeno-free medium) was “prolonged” and the “expression of VE-cadherin” value (xeno-free medium with single component) was “low”.
